Data: patent US7999137B2, “Pesticide bi-phenyl-amidine derivatives” (Bayer Cropscience AG, priority 2006, dated 2011)

Experiment: logP by HPLC on reversed-phase column (C 18), EEC Directive 79/831 Annex V.A8
Assay type: physicochemical
Conditions: HPLC reversed-phase C 18; 40° C.; 0.1% aqueous formic acid and acetonitrile, linear gradient 10% to 90% acetonitrile
Experimental: Temperature: 40° C.; Mobile phases: 0.1% aqueous formic acid and acetonitrile; linear gradient from 10% acetonitrile to 90% acetonitrile.
Calibration was carried out using unbranched alkan-2-ones (comprising 3 to 16 carbon atoms) with known logP values (determination of the logP values by the retention times using linear interpolation between two successive alkanones).

| log p (HCOOH) | SMILES |
| --- | --- |
| 2.00 | CCN(C)C=Nc1ccc(-c2ccc(F)c(Cl)c2)cc1C [Compound 5] |
| 2.20 | CCN(C)C=Nc1ccc(-c2ccc(Oc3ccccc3)cc2)cc1F [Compound 90] |
| 2.39 | CCc1cc(-c2ccc(Cl)c(C(F)(F)F)c2)ccc1N=CN(C)CC [Compound 21] |
| 2.27 | CCN(C)C=Nc1cc(C)c(-c2ccc(Cl)c(C)c2)cc1C [Compound 109] |
| 1.79 | CCc1cc(-c2ccc(F)cc2)ccc1N=CN(C)CC [Compound 23] |
| 2.01 | COc1cc(-c2ccc(C)cc2)c(OC)cc1N=CN(C)C(C)C [Compound 103] |
| 2.45 | Cc1cc(-c2ccc(C(C)(C)C)cc2)ccc1N=C1CCCCN1 [Compound 138] |
| 2.00 | CCc1cc(-c2ccc(F)c(F)c2)ccc1N=CN(C)CC [Compound 56] |
| 2.29 | CCN(C)C=Nc1ccc(-c2ccc(C(C)(C)C)cc2)cc1F [Compound 6] |
| 2.19 | CCN(C)C=Nc1cc(C)c(-c2ccc(C(F)(F)F)cc2)cc1C [Compound 132] |
| 1.98 | CCN(C)C=Nc1cc(C)c(-c2ccc(F)c(F)c2)cc1C [Compound 46] |
| 2.04 | CC(C)N(C)C=Nc1ccc(-c2cccc(Cl)c2)c(Cl)c1 [Compound 101] |
| 3.10 | CCCN(C)C=Nc1cc(C)c(-c2ccc([Si](C)(C)C)cc2)cc1C [Compound 152] |
| 2.08 | CCN(C)C=Nc1cc(C)c(-c2ccc(F)c(C)c2)cc1C [Compound 45] |
| 3.16 | Cc1cc(-c2ccc([Si](C)(C)C)cc2)c(C)cc1N=CN1CCCCC1 [Compound 154] |
| 1.99 | CCN(C)C=Nc1ccc(-c2ccc(C(F)(F)F)cc2)cc1Cl [Compound 24] |
| 1.68 | CCc1cc(-c2ccc(OC)c(OC)c2)ccc1N=CN(C)CC [Compound 62] |
| 2.60 | C=CCN(C)C=Nc1cc(C)c(-c2ccc(C(C)C)cc2)cc1C [Compound 157] |
| 2.53 | Cc1cc(-c2ccc(C(C)(C)C)cc2)c(C)cc1N=C1CCCN1 [Compound 120] |
| 2.32 | CCc1cc(-c2ccc(Oc3ccccc3)cc2)ccc1N=CN(C)CC [Compound 59] |
| 2.37 | CCN(C)C=Nc1cc(C)c(-c2ccc(OC(C)C)c(F)c2)cc1C [Compound 172] |

| log p (HCOOH) | SMILES |
| --- | --- |
| 2.31 | CCc1cc(-c2ccc(Cl)c(F)c2)ccc1N=CN(C)CC [Compound 52] |
| 2.55 | CCON=C(C)c1ccc(-c2cc(C)c(N=CN(C)CC)cc2C)cc1 [Compound 139] |
| 1.83 | CCN(C)C=Nc1cc(OC)c(-c2ccc(OC)c(Cl)c2)cc1OC [Compound 97] |
| 2.19 | CCc1cc(-c2ccc(C(C)=NOC)cc2)ccc1N=CN(C)CC [Compound 53] |
| 2.21 | CCN(C)C=Nc1cc(C#N)c(-c2ccc(C(C)(C)C)cc2)cc1C [Compound 177] |
| 1.76 | CCN(C)C=Nc1ccc(-c2ccc(COC)cc2)cc1C(F)(F)F [Compound 93] |
| 2.85 | CCN(C)C=Nc1cc(C)c(-c2ccc(C(C)(C)C)c(Cl)c2)cc1C [Compound 168] |
| 2.34 | CCN(C)C=Nc1cc(C)c(-c2ccc(C(C)C)cc2)cc1C [Compound 155] |
| 2.09 | CCc1cc(-c2ccc(C=NOC)cc2)ccc1N=CN(C)CC [Compound 51] |
| 2.05 | CCN(C)C=Nc1cc(C)c(-c2ccc(OC)c(C)c2)cc1C [Compound 114] |
| 2.48 | C=CCN(C)C=Nc1cc(C)c(-c2ccc(C)c(Cl)c2)cc1C [Compound 148] |
| 3.18 | CCN(C)C=Nc1cc(C)c(-c2ccc(C[Si](C)(C)C)cc2)cc1C [Compound 166] |
| 2.66 | CCc1cc(-c2ccc(C(C)(C)C)cc2)ccc1N=CN(C)CC [Compound 7] |
| 3.08 | C=CCN(C)C=Nc1cc(C)c(-c2ccc([Si](C)(C)C)cc2)cc1C [Compound 153] |
| 2.77 | CCN(C)C(C)=Nc1cc(C)c(-c2ccc(C(C)(C)C)cc2)cc1C [Compound 176] |
| 2.39 | CCN(C)C=Nc1ccc(-c2ccc(Cl)cc2Cl)cc1C(F)(F)F [Compound 85] |
| 2.21 | CCN(C)C=Nc1ccc(-c2ccc(Cl)c(Cl)c2)cc1C [Compound 32] |
| 1.54 | CCN(C)C=Nc1cc(C)c(-c2ccc(C#N)cc2)cc1C [Compound 136] |
| 2.98 | CCN(C)C=Nc1cc(C)c(-c2ccc([Si](C)(C)C)cc2)cc1C [Compound 151] |
| 1.89 | CCN(C)C=Nc1ccc(-c2ccc(F)c(F)c2)cc1C [Compound 34] |
| 1.84 | CCN(C)C=Nc1ccc(-c2ccc(OC)c(OC)c2OC)cc1C(F)(F)F [Compound 11] |

| log p (HCOOH) | SMILES |
| --- | --- |
| 1.41 | CCN(C)C=Nc1ccc(-c2ccc(OC)c(OC)c2)cc1F [Compound 95] |
| 2.10 | CCN(C)C=Nc1ccc(-c2ccc(F)c(C)c2)cc1Cl [Compound 67] |
| 1.84 | CCN(C)C=Nc1ccc(-c2ccc(F)cc2)cc1C [Compound 126] |
| 1.93 | CCN(C)C=Nc1ccc(-c2ccc(F)cc2)cc1C(F)(F)F [Compound 14] |
| 1.54 | CCN(C)C=Nc1ccc(-c2ccc(OC)c(OC)c2)cc1Cl [Compound 74] |
| 1.90 | CCc1cc(-c2ccc(OC)cc2)ccc1N=CN(C)CC [Compound 58] |
| 2.74 | Cc1cc(-c2ccc(C(C)(C)C)c(F)c2)c(C)cc1N=CN(C)C(C)C [Compound 169] |
| 1.65 | CCN(C)C=Nc1ccc(-c2ccc(COC)cc2)cc1Cl [Compound 73] |
| 1.92 | CCN(C)C=Nc1ccc(-c2ccc(F)c(Cl)c2)cc1Cl [Compound 3] |
| 2.54 | CCN(C)C=Nc1ccc(-c2ccc(C(F)(F)F)cc2)cc1C(F)(F)F [Compound 25] |
| 2.15 | CCN(C)C=Nc1ccc(-c2ccc(Cl)c(C(F)(F)F)c2)cc1F [Compound 20] |
| 2.23 | CCN(C)C=Nc1ccc(-c2ccc(Cl)cc2C)cc1C [Compound 111] |
| 1.67 | CCc1cc(-c2ccc(COC)cc2)ccc1N=CN(C)CC [Compound 61] |
| 2.44 | CCN(C)C=Nc1ccc(-c2ccc(C(C)(C)C)cc2)cc1Cl [Compound 1] |
| 2.40 | CCN(C)C=Nc1cc(C)c(-c2ccc(Cl)c(C(F)(F)F)c2)cc1C [Compound 17] |
| 2.21 | CCN(C)C=Nc1cc(C)c(-c2ccc(S(=O)(=O)C(F)(F)F)cc2)cc1C [Compound 174] |
| 2.53 | Cc1ccc(-c2cc(C)c(N=CN3CCCCC3)cc2C)cc1Cl [Compound 149] |
| 2.48 | CCN(C)C=Nc1ccc(-c2ccc(OCc3ccccc3)cc2)cc1Cl [Compound 72] |
| 2.20 | CCc1cc(-c2ccc(C(F)(F)F)cc2)ccc1N=CN(C)CC [Compound 27] |
| 1.54 | CCN(C)C=Nc1ccc(-c2ccc(C#N)cc2)cc1C [Compound 130] |
| 1.50 | CCN(C)C=Nc1ccc(-c2ccc(OC)c(OC)c2OC)cc1F [Compound 12] |

| log p (HCOOH) | SMILES |
| --- | --- |
| 2.39 | CCc1cc(-c2ccc(OCc3ccccc3)cc2)ccc1N=CN(C)CC [Compound 60] |
| 2.79 | Cc1cc(-c2ccc(C(C)(C)C)cc2)c(C)cc1N=CN1CCCC1 [Compound 119] |
| 1.49 | CCN(C)C=Nc1ccc(-c2ccc(OC)c(OC)c2)cc1C [Compound 38] |
| 2.60 | C=CCN(C)C=Nc1cc(C)c(-c2ccc(C(C)=NOCC)cc2)cc1C [Compound 140] |
| 2.70 | CCCN(C)C=Nc1cc(C)c(-c2ccc(C(C)C)cc2)cc1C [Compound 156] |
| 2.28 | CCN(C)C=Nc1ccc(-c2ccc(Cl)c(C(F)(F)F)c2)cc1C [Compound 16] |
| 2.32 | CCN(C)C=Nc1ccc(-c2ccc(Cl)cc2Cl)cc1Cl [Compound 69] |
| 2.78 | Cc1cc(-c2ccc(C(F)(F)F)c(Cl)c2)c(C)cc1N=CN1CCCCC1 [Compound 145] |
| 2.94 | CCN(C)C=Nc1cc(C)c(-c2ccc(C3CCCC3)cc2)cc1C [Compound 167] |
| 2.77 | Cc1cc(-c2ccc(C(C)(C)C)cc2)c(C)cc1N=CN(C)C(C)C [Compound 161] |
| 1.95 | CCN(C)C=Nc1cc(C)c(-c2ccc(F)cc2)cc1C [Compound 22] |
| 2.04 | CCN(C)C=Nc1ccc(-c2ccc(F)c(C)c2)cc1C [Compound 33] |
| 2.41 | CCN(C)C=Nc1ccc(-c2ccc(Oc3ccccc3)cc2)cc1C [Compound 35] |
| 2.18 | CCN(C)C=Nc1cc(C)c(-c2ccc(Cl)cc2)cc1C [Compound 125] |
| 2.24 | CCN(C)C=Nc1cc(C)c(-c2ccc(Cl)cc2C)cc1C [Compound 112] |
| 2.45 | CCN(C)C=Nc1ccc(-c2ccc(Oc3ccccc3)cc2)cc1Cl [Compound 71] |
| 1.59 | CCN(C)C=Nc1ccc(-c2ccc(OC)cc2)cc1F [Compound 88] |
| 2.65 | CCN(C)C=Nc1ccc(-c2ccc(Oc3ccccc3)cc2)cc1C(F)(F)F [Compound 89] |

Same assay, conditions: reversed-phase HPLC column (C 18); HPLC reversed-phase C 18; 40° C.; 0.1% aqueous formic acid and acetonitrile, linear gradient 10% to 90% acetonitrile; read-out: log p (HCOOH)

| chromatographic logP | SMILES |
| --- | --- |
| 2.6 | Cc1cc(-c2ccc(C(C)(C)C)cc2)c(C)cc1N=C1CCCCN1 [Compound 121, 4′-tert-butyl-2,5-dimethyl-N-[piperidin-2-ylidene]biphenyl-4-amine] |

Same assay, conditions: reversed-phase HPLC column (C 18); pH 2.3; HPLC, 0.1% aqueous formic acid and acetonitrile, 40° C.; read-out: log P (pH 2.3)

| chromatographic logP | SMILES |
| --- | --- |
| 1.36 | CCN(C)/C=N/c1cc(C)c(Br)cc1C [Intermediate (Va-1), N′-(4-bromo-2,5-dimethylphenyl)-N-ethyl-N-methylimidoformamide] |
| 2.6 | Cc1cc(-c2ccc(C(C)(C)C)cc2)c(C)cc1N=C1CCCCN1 [Compound 121, 4′-tert-butyl-2,5-dimethyl-N-[piperidin-2-ylidene]biphenyl-4-amine] |
